Measured values: US10669272B2, “Substituted naphthyridinone compounds useful as T cell activators” (BRISTOL-MYERS SQUIBB COMPANY, priority 2018, dated 2020)
pEC50, pIC50: −log10 of the molar value. Where a name gives a salt, the structure may show the parent alone. Read-outs that look alike come from different tables or passages of the source.

Columns and labels:
human DGKα = target: T1, human DGKα (Homo sapiens, UniProt P23743); assay: DGKα LIPGLO assay (extruded liposome substrate), in vitro DGK inhibition; assay type: biochemical; settings: read-out: DGKa LIPGLO IC50
T1 construct: TVMV protease cleavage site (C); Hexa-His (C); made in house; host or cells: Sf9 insect cells (baculovirus, Bac-to-Bac)

human DGKζ = target: T2, human DGKζ (Homo sapiens, UniProt Q13574); assay: DGKζ LIPGLO assay (extruded liposome substrate), in vitro DGK inhibition; assay type: biochemical; settings: read-out: DGKz LIPGLO IC50
T2 construct: TVMV protease cleavage site (C); Hexa-His (C); made in house; host or cells: Sf9 insect cells (baculovirus, Bac-to-Bac)

[1] = system: OT-1 CD8+ T cells with SIINFEKL-loaded MC38 tumor cells; assay: Murine cytotoxic T lymphocyte assay (IFN-γ, OT-1 CTL with MC38 tumor cells); assay type: cell-based, mouse; settings: read-out: msCTL INFg IC50
Source text: 5. Murine Cytotoxic T Lymphocyte Assay
An antigen-specific cytolytic T-cell (CTL) assay was developed to evaluate functionally the ability of DGKα and DGKζ inhibitors to enhance effector T cell mediated tumor cell killing activity. CD8+ T-cells isolated from the OT-1 transgenic mouse recognize antigen presenting cells, MC38, that present the ovalbumin derived peptide […]. Recognition of the cognate antigen initiates the cytolytic activity of the OT-1 antigen-specific CD8+ T cells.
Functional CTL cells were generated as follows: OT-1 splenocytes from 8-12 week old mice were isolated and expanded in the presence of the […] peptide at 1 μg/mL and mIL2 at 10 U/mL. After three days, fresh media with […] was added. On day 5 of the expansion, the CD8+ T cells were isolated and ready for use. Activated CTL cells may be stored frozen for 6 months. Separately, one million MC38 tumor cells were pulsed with 1 μg/mL of […]-OVA peptide for 3 hours at 37° C. The cells were washed (3×) with fresh media to remove excess peptide. Finally, CTL cells that were pretreated with DGK inhibitors for 1 hour in a 96-well U bottom plate were combined with the antigen loaded MC38 tumor cells at a 1:10 ratio. The cells were then spun at 700 rpm for 5 min and placed in an incubator overnight at 37° C. After 24 hours, the supernatant was collected for analysis of IFN-γ cytokine levels by AlphaLisa purchased from Perkin Elmer.

Human venous whole blood = assay: Human whole blood IFN-γ assay; assay type: cell-based;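 further: blood from healthy donors exposed to compound for 1 h before stimulation with anti-CD3 and anti-CD28 at 1 µg/mL each, IFN-γ quantified in supernatant by AlphaLISA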
Experimental: Human Whole Blood IFN-γ Assay
Human venous whole blood (22.5 μL per well), obtained from healthy donors, was pre-treated with compounds for one hour at 37° C. in a humidified 95% air/5% CO2 incubator. The blood was stimulated with 2.5 μL anti-human CD3 and anti-CD28 mAb at a final concentration of 1 μg/mL each for 24 hours at 37° C. IFN-γ in the supernatants was measured using AlphLISA kit (Cat # AL217).

[2] = Homo sapiens, 24 h, human whole blood, normalized to 3 μM reference compound with anti-CD3 plus anti-CD28 as 100% activation, read-out: INFg Whole Blood Normalized Agonist EC50
[3] = human whole blood, normalized to 3 μM reference compound with anti-CD3 plus anti-CD28 as 100% activation, read-out: INFg Whole Blood Normalized Agonist EC50
[4] = Homo sapiens, 24 h, human whole blood, anti-CD3 plus anti-CD28, 24 hours, 3 μM reference compound = 100% activation, read-out: INFg Whole Blood Normalized Agonist EC50

T2 sequence (Q13574 with tags, fused parts or gaps isoform Q13574-4): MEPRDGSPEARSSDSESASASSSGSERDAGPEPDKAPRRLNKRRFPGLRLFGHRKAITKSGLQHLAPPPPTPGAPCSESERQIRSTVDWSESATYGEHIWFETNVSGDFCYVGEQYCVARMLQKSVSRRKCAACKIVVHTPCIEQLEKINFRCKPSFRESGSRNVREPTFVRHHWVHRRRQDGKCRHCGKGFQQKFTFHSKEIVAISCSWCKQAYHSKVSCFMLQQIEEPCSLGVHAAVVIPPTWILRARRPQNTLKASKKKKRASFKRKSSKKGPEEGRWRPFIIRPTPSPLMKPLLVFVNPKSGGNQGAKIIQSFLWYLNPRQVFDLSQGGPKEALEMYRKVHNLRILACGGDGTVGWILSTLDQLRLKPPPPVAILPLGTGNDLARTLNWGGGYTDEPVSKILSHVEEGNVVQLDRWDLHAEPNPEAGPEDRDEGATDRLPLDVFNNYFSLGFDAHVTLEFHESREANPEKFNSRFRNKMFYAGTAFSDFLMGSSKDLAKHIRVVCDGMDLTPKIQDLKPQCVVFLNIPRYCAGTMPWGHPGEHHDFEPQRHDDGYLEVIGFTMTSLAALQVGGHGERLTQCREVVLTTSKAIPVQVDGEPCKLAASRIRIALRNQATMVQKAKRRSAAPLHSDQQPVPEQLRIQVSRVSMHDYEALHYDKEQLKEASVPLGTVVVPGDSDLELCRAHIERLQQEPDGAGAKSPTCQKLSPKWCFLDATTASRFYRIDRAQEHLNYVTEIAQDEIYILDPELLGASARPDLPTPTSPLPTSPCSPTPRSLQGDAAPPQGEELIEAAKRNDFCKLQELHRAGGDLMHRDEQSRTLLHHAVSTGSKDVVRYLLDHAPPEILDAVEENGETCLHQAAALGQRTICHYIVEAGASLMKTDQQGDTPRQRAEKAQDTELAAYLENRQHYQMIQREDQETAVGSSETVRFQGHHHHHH
T1 sequence (P23743 with tags, fused parts or gaps): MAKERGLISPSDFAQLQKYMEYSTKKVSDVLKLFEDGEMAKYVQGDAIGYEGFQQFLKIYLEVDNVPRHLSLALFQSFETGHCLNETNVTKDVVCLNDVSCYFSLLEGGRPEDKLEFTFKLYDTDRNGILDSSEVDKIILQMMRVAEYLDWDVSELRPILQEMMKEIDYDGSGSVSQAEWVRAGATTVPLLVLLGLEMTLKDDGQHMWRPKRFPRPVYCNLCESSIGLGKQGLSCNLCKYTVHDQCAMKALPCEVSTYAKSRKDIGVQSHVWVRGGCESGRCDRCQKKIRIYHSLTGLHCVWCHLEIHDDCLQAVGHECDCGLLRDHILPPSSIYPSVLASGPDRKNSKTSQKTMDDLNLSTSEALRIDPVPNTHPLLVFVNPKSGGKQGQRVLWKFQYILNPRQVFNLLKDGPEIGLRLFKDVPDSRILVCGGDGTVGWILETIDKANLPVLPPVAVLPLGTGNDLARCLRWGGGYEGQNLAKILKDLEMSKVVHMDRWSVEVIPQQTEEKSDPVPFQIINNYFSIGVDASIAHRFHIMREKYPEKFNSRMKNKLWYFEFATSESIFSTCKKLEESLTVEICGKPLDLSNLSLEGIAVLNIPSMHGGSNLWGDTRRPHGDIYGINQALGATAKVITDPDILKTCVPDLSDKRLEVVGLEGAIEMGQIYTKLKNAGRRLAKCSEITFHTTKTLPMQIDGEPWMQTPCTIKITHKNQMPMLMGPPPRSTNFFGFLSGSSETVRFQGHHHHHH

SMILES: COc1cc(F)ccc1C(c1ccc(F)cc1)N1C[C@H](C)N(c2c(C#N)c(=O)n(C)c3ccc(C#N)nc23)C[C@H]1C (single isomer, unassigned) [Example 112]
- pIC50 (human DGKα; liposome (LIPGLO) assay): 4.11
- pIC50 (human DGKζ; liposome (LIPGLO) assay): 5.59
- pIC50 ([1]; Mus musculus, MC-38): 5.80
- pEC50 (Human venous whole blood; [2]): 5.15

SMILES: CC(C)C(C)(O)C1CN(c2cc(=O)n(C)c3ccc(C#N)nc23)CCN1C(c1ccc(F)cc1)c1ccc(F)cc1 (single isomer, unassigned) [Example 89, 8-(4-(bis(4-fluorophenyl)methyl)-3-(2-hydroxy-3-methylbutan-2-yl)piperazin-1-yl)-5-methyl-6-oxo-5,6-dihydro-1,5-naphthyridine-2-carbonitrile]
- pIC50 (human DGKα; liposome (LIPGLO) assay): 3.62
- pIC50 (human DGKζ; liposome (LIPGLO) assay): 4.11
- pIC50 [1]: 5.59
- pEC50 (Human venous whole blood; [3]): 4.70

SMILES: C[C@@H]1CN(c2c(C#N)c(=O)n(C)c3ccc(C#N)nc23)CCN1Cc1c(F)cc(F)cc1F [Example 986]
- pIC50 (human DGKα; DGKα liposome (LIPGLO) assay): 5.38
- pIC50 (human DGKζ; DGKζ liposome (LIPGLO) assay): 5.59
- pIC50 ([1]; Mus musculus, MC-38, murine CTL, IFN-γ): 5.43
- pEC50 (Human venous whole blood; [4]): 4.70

SMILES: COc1cc(F)ccc1C(c1ccc(F)cc1)N1CCN(c2cc(=O)n(C)c3ccc(C#N)nc23)[C@@H](C)C1 (single isomer, unassigned) [Example 130]
- pIC50 (human DGKα; liposome (LIPGLO) assay): 4.74
- pIC50 (human DGKζ; liposome (LIPGLO) assay): 6.02
- pIC50 [1]: 6.12
- pEC50 (Human venous whole blood; [3]): 5.40

SMILES: COc1cc(F)ccc1C(c1ccc(F)cc1)N1CCN(c2cc(=O)n(C)c3ccc(C#N)nc23)[C@@H](C)C1 (single isomer, unassigned) [Example 129]
- pIC50 (human DGKα; liposome (LIPGLO) assay): 4.92
- pIC50 (human DGKζ; liposome (LIPGLO) assay): 6.09
- pIC50 ([1]; Mus musculus, MC-38): 6.15
- pEC50 (Human venous whole blood; [2]): 5.27

SMILES: COc1cc(F)ccc1C(c1ccc(F)cc1)N1C[C@H](C)N(c2c([N+](=O)[O-])c(=O)n(C)c3ccc(C#N)nc23)C[C@H]1C (single isomer, unassigned) [Example 122]
- pIC50 (human DGKα; liposome (LIPGLO) assay): 3.68
- pIC50 (human DGKζ; liposome (LIPGLO) assay): 5.32
- pIC50 ([1]; Mus musculus, MC-38): 5.42
- pEC50 (Human venous whole blood; [2]): 5.00

SMILES: Cn1c(=O)cc(N2CCN(C(c3ccc(F)cc3)c3ccc(F)cc3)CC2C2CC2)c2nc(C#N)ccc21 (single isomer, unassigned) [Example 23, 8-(4-(bis(4-fluorophenyl)methyl)-2-cyclopropylpiperazin-1-yl)-5-methyl-6-oxo-5,6-dihydro-1,5-naphthyridine-2-carbonitrile]
- pIC50 (human DGKα; liposome (LIPGLO) assay): 3.62
- pIC50 (human DGKζ; liposome (LIPGLO) assay): 4.00
- pIC50 [1]: 5.85
- pEC50 (Human venous whole blood; [2]): 5.00

SMILES: COC(=O)C1CN(c2cc(=O)n(C)c3ccc(C#N)nc23)CCN1C(c1ccc(F)cc1)c1ccc(F)cc1OC (single isomer, unassigned) [Example 72, Methyl 4-(6-cyano-1-methyl-2-oxo-1,2-dihydro-1,5-naphthyridin-4-yl)-1-((4-fluoro-2-methoxyphenyl)(4-fluorophenyl)methyl)piperazine-2-carboxylate]
- pIC50 (human DGKα; liposome (LIPGLO) assay): 4.40
- pIC50 (human DGKζ; liposome (LIPGLO) assay): 6.12
- pIC50 [1]: 7.11
- pEC50 (Human venous whole blood; [3]): 5.92

SMILES: Cc1nnc(C2CN(c3cc(=O)n(C)c4ccc(C#N)nc34)CCN2C(c2ccc(F)cc2)c2ccc(F)cc2)o1 (centres unmarked) [Example 126, 8-(4-(bis(4-fluorophenyl)methyl)-3-(5-methyl-1,3,4-oxadiazol-2-yl)piperazin-1-yl)-5-methyl-6-oxo-5,6-dihydro-1,5-naphthyridine-2-carbonitrile]
- pIC50 (human DGKα; liposome (LIPGLO) assay): 3.64
- pIC50 (human DGKζ; liposome (LIPGLO) assay): 4.51
- pIC50 ([1]; Mus musculus, MC-38): 5.00
- pEC50 (Human venous whole blood; [2]): 4.70

SMILES: CC1C(C)N(C(c2ccc(F)cc2)c2ccc(F)cc2)CCN1c1cc(=O)n(C)c2ccc(C#N)nc12 (single isomer, unassigned) [Example 123, 8-(4-(bis(4-fluorophenyl)methyl)-2,3-dimethylpiperazin-1-yl)-5-methyl-6-oxo-5,6-dihydro-1,5-naphthyridine-2-carbonitrile]
- pIC50 (human DGKα; liposome (LIPGLO) assay): 5.62
- pIC50 (human DGKζ; liposome (LIPGLO) assay): 3.62
- pIC50 [1]: 5.62
- pEC50 (Human venous whole blood; [3]): 4.46

SMILES: CC(C)C(C)(F)C1CN(c2cc(=O)n(C)c3ccc(C#N)nc23)CCN1C(c1ccc(F)cc1)c1ccc(F)cc1 (single isomer, unassigned) [Example 90, 8-(4-(bis(4-fluorophenyl)methyl)-3-(2-fluoro-3-methylbutan-2-yl)piperazin-1-yl)-5-methyl-6-oxo-5,6-dihydro-1,5-naphthyridine-2-carbonitrile, TFA]
- pIC50 (human DGKα; liposome (LIPGLO) assay): 3.62
- pIC50 (human DGKζ; liposome (LIPGLO) assay): 3.62
- pIC50 ([1]; Mus musculus, MC-38): 5.32
- pEC50 (Human venous whole blood; [2]): 4.70

SMILES: Cn1c(=O)cc(N2CCN(C(c3ccc(F)cc3)c3ccc(F)cc3)C(C(C)(C)F)C2)c2nc(C#N)ccc21 (single isomer, unassigned) [Example 80, 8-(4-(bis(4-fluorophenyl)methyl)-3-(2-fluoropropan-2-yl)piperazin-1-yl)-5-methyl-6-oxo-5,6-dihydro-1,5-naphthyridine-2-carbonitrile]
- pIC50 (human DGKα; liposome (LIPGLO) assay): 6.17
- pIC50 (human DGKζ; liposome (LIPGLO) assay): 3.62
- pIC50 [1]: 5.51
- pEC50 (Human venous whole blood; [2]): 5.00

SMILES: Cn1c(=O)cc(N2CCN(C(c3ccc(F)cc3)c3ccc(F)cc3)CC2C2CC2)c2nc(C#N)ccc21 (single isomer, unassigned) [Example 24, 8-(4-(bis(4-fluorophenyl)methyl)-2-cyclopropylpiperazin-1-yl)-5-methyl-6-oxo-5,6-dihydro-1,5-naphthyridine-2-carbonitrile]
- pIC50 (human DGKα; liposome (LIPGLO) assay): 5.82
- pIC50 (human DGKζ; liposome (LIPGLO) assay): 5.41
- pIC50 [1]: 6.70
- pEC50 (Human venous whole blood; [3]): 4.89

SMILES: Cc1ccc(C(C)N2CCN(c3c(C#N)c(=O)n(C)c4ccc(C#N)nc34)C[C@H]2C)cc1 (single isomer, unassigned) [Example 952]
- pIC50 (human DGKα; DGKα liposome (LIPGLO) assay): 6.23
- pIC50 (human DGKζ; DGKζ liposome (LIPGLO) assay): 5.64
- pIC50 ([1]; murine CTL, IFN-γ): 5.23
- pEC50 (Human venous whole blood; [4]): 5.52

SMILES: COC(=O)C1CN(c2c(F)c(=O)n(C)c3ccc(C#N)nc23)CCN1C(c1ccc(F)cc1)c1ccc(F)cc1 (single isomer, unassigned) [Example 74, Methyl 1-(bis(4-fluorophenyl)methyl)-4-(6-cyano-3-fluoro-1-methyl-2-oxo-1,2-dihydro-1,5-naphthyridin-4-yl)piperazine-2-carboxylate]
- pIC50 (human DGKα; liposome (LIPGLO) assay): 4.64
- pIC50 (human DGKζ; liposome (LIPGLO) assay): 5.07
- pIC50 [1]: 6.54
- pEC50 (Human venous whole blood; [2]): 5.07

SMILES: COC(=O)C1CN(c2cc(=O)n(C)c3ccc(C#N)nc23)CCN1C(c1ccc(F)cc1)c1ccc(F)cc1OC (single isomer, unassigned) [Example 71, Methyl 4-(6-cyano-1-methyl-2-oxo-1,2-dihydro-1,5-naphthyridin-4-yl)-1-((4-fluoro-2-methoxyphenyl)(4-fluorophenyl)methyl)piperazine-2-carboxylate]
- pIC50 (human DGKα; liposome (LIPGLO) assay): 3.62
- pIC50 (human DGKζ; liposome (LIPGLO) assay): 4.28
- pIC50 [1]: 5.42
- pEC50 (Human venous whole blood; [3]): 5.00

SMILES: COC(=O)C1CN(c2cc(=O)n(C)c3ccc(C#N)nc23)CCN1C(c1ccc(F)cc1)c1ccc(F)cc1OC (single isomer, unassigned) [Example 69, Methyl 4-(6-cyano-1-methyl-2-oxo-1,2-dihydro-1,5-naphthyridin-4-yl)-1-((4-fluoro-2-methoxyphenyl)(4-fluorophenyl)methyl)piperazine-2-carboxylate]
- pIC50 (human DGKα; liposome (LIPGLO) assay): 4.68
- pIC50 (human DGKζ; liposome (LIPGLO) assay): 6.07
- pIC50 [1]: 6.66
- pEC50 (Human venous whole blood; [3]): 5.60

SMILES: COC(=O)C1CN(c2c([N+](=O)[O-])c(=O)n(C)c3ccc(C#N)nc23)CCN1C(c1ccc(F)cc1)c1ccc(F)cc1 (single isomer, unassigned) [Example 73, Methyl 1-(bis(4-fluorophenyl)methyl)-4-(6-cyano-1-methyl-3-nitro-2-oxo-1,2-dihydro-1,5-naphthyridin-4-yl)piperazine-2-carboxylate]
- pIC50 (human DGKα; liposome (LIPGLO) assay): 6.28
- pIC50 (human DGKζ; liposome (LIPGLO) assay): 6.51
- pIC50 ([1]; Mus musculus, MC-38): 6.82
- pEC50 (Human venous whole blood; [2]): 6.54

SMILES: Cc1ccc(C(C)N2CCN(c3c(C#N)c(=O)n(C)c4ccc(C#N)nc34)C[C@H]2C)cc1 (single isomer, unassigned) [Example 953]
- pIC50 (human DGKα; DGKα liposome (LIPGLO) assay): 5.96
- pIC50 (human DGKζ; DGKζ liposome (LIPGLO) assay): 4.82
- pIC50 ([1]; murine CTL, IFN-γ): 5.77

SMILES: CC[C@H]1CN(C(c2ccc(F)cc2)c2ccc(F)cc2)CCN1c1cc(=O)n(C)c2ccc(C#N)nc12 [Example 127, (S)-8-(4-(bis(4-fluorophenyl)methyl)-2-ethylpiperazin-1-yl)-5-methyl-6-oxo-5,6-dihydro-1,5-naphthyridine-2-carbonitrile]
- pIC50 ([1]; Mus musculus, MC-38): 6.44
- pEC50 (Human venous whole blood; Homo sapiens, 24 h, read-out: INFg Whole Blood Normalized Agonist EC50, human whole blood, normalized to 3 μM reference compound with anti-CD3 plus anti-CD28 as 100% activation): 5.37
